Data: patent US20250186439A1, “PYK2 INHIBITION MODULATES IMMUNE CELL FUNCTION” (The Children's Medical Center Corporation, priority 2022, published 2025)
Entries after “also recorded” stand apart in the source; their conditions may differ.

Legend:
[1] = tested on: MG6 cells; test: Multinucleation of MG6 microglia (DAPI, Iba1 staining); assay type: cell-based, mouse
Procedure: (§1) FIGS. 4A-4E. Induction of multinucleated cells by a Pyk2 inhibitor. FIG. 4A: Microscopic images depicting the effect of a Pyk2 inhibitor on the morphology of MG6 cells. MG6 cell line is established with neonatal C57BL/6 mouse microglia that are collected from whole brain and transformed with c-myc oncogene. MG6 cells were stimulated with 100 ng/mL CSF-1 for 48 hours and then cultured for 24 hours with various concentrations of Pyk2 inhibitor: 0 nM, 100 nM, 500 nM and 1000 nM. FIG. 4B: Quantification of the effect of a Pyk2 inhibitor on the proliferation of MG6 cells. MG6 cells were stimulated with CSF-1 and cultured with various concentrations of Pyk2 inhibitor as in FIG. 4A. The baseline proliferation rate is defined as 100 ng/mL CSF-1 treatment for 48 hours. Proliferation of MG6 cells with various concertation of Pyk2 inhibitor treatment is measured using a Cell Counter Kit for 4 hours of incubation. No difference in MG6 cell proliferation is observed at the Pyk2 inhibitor concentration of 100 nM. […] FIG. 4C: Microscopic images depicting multinucleated MG6 cells with 24 hours of 1000 nM Pyk2 inhibitor treatment following 48 hours of 100 ng/mL CSF-1 treatment. […] Multinucleated cells with two or more nuclei are observed as marked with circles in the bottom image. FIG. 4D: Quantification of the proportion of multinucleated cells after 0 nM, 500 nM, and 1000 nM Pyk2 inhibitor treatment. MG6 cells were treated with Pyk2 inhibitor for 24 hours after 48 hours of 100 ng/mL CSF-1 treatment. […] FIG. 4E: Immunohistochemical staining depicting multinucleation of Pyk2 inhibitor treated microglia. MG6 cells were stained with anti-Tubulin and anti-Iba1, while nuclei were stained with DAPI. Cells were observed via confocal microscopy (×600). MG6 cells were treated without Pyk2 inhibitor (left) or with 1000 nM Pyk2 inhibitor (right) after 48 hours of 100 ng/mL CSF-1 treatment. Scale bar is 20 μm. […]
(§2) To further assess the function of Pyk2 during neurodegenerative disorders, such as AD, the effect of Pyk2 inhibition was assessed in a microglial cell line. […]

[2] = tested on: MG6 cells; test: Proliferation of FACS-sorted mono-/multinuclear MG6 cells; assay type: cell-based, mouse; conditions: 1000 nM, 24 h pretreatment
Procedure: FIGS. 7A-7D. Pyk2 inhibition promotes the phagocytotic activity and inflammatory responses in microglia. FIG. 7A: Quantification of the effect of Pyk2 inhibitor treatment on proliferation of mononucleated and multinucleated MG6 cells. MG6 cells were pretreated with 1000 nM Pyk2 inhibitor for 24 hours and mono-/multi-nuclear cells were isolated and collected by fluorescent activated cell sorting. […] There is no difference in proliferation of mononuclear cells after Pyk2 inhibitor treatment compared to untreated control cells. FIG. 7B: Fluorescent imaging depicting the effect of Pyk2 inhibitor on phagocytosis of mononucleated and multinucleated MG6 cells. […] FIG. 7C: Quantification of phagocytosis of mononucleated and multinucleated MG6 cells over time. […] Fluorescence intensity was measured by fluorescence microplate reader at excitation/emission wavelengths of 560/580 nm. […] FIG. 7D: Quantification of the effect of Pyk2 inhibitor treatment on cytokine/chemokine levels of mononucleated and multinucleated MG6 cells. The relative mRNA levels of IL-6, IL-1β, IL-10, and TGF-β were measured by a real-time PCR (qPCR). Measured mRNA transcript levels are reported as the mean level±standard deviation (n=3; *: p-value<0.05; **: p-value <0.01; ***: p-value <0.005; ****: p-value <0.001; and *****: p-value <0.0005). […]

[3] = tested on: MG6 cells; test: Phagocytosis of pHrodo Red E. coli BioParticles by sorted mono-/multinuclear MG6 cells (fluorescence plate reader); assay type: cell-based, mouse
Procedure: FIGS. 7A-7D. Pyk2 inhibition promotes the phagocytotic activity and inflammatory responses in microglia. FIG. 7A: Quantification of the effect of Pyk2 inhibitor treatment on proliferation of mononucleated and multinucleated MG6 cells. MG6 cells were pretreated with 1000 nM Pyk2 inhibitor for 24 hours and mono-/multi-nuclear cells were isolated and collected by fluorescent activated cell sorting. […] There is no difference in proliferation of mononuclear cells after Pyk2 inhibitor treatment compared to untreated control cells. FIG. 7B: Fluorescent imaging depicting the effect of Pyk2 inhibitor on phagocytosis of mononucleated and multinucleated MG6 cells. MG6 cells were pretreated with 1000 nM Pyk2 inhibitor for 24 hours and mono-/multi-nuclear cells were isolated and collected by fluorescent activated cell sorting. After sorting, cells were treated with pHrodo Red E. coli BioParticles. Representative images are shown at ×20 magnification level. FIG. 7C: Quantification of phagocytosis of mononucleated and multinucleated MG6 cells over time. After Pyk2 inhibitor treatment and cell sorting, MG6 cells were treated with pHrodo Red E. coli BioParticles for the indicated time. Fluorescence intensity was measured by fluorescence microplate reader at excitation/emission wavelengths of 560/580 nm. […] FIG. 7D: Quantification of the effect of Pyk2 inhibitor treatment on cytokine/chemokine levels of mononucleated and multinucleated MG6 cells. The relative mRNA levels of IL-6, IL-1β, IL-10, and TGF-β were measured by a real-time PCR (qPCR). Measured mRNA transcript levels are reported as the mean level±standard deviation (n=3; *: p-value<0.05; **: p-value <0.01; ***: p-value <0.005; ****: p-value <0.001; and *****: p-value <0.0005).
Next, the differences in the activity of mononucleated and multinucleated microglial cells in response to Pyk2 inhibition was further assessed. […] Mononucleated and multinucleated MG6 cells also differed regarding the cytokines and chemokines produced by each (FIG. 7D).

[4] = tested on: microglia; test: β-amyloid (Aβ42) brain infusion assay, microglia response in vivo; design: species or system mouse; conditions: intracerebroventricular infusion before Aβ42 infusion
Text: FIGS. 9A-9B. FIG. 9A. Aβ brain infusion assay system. Using osmotic pump implanted to mice, an experimental system using intracerebroventricular injection was established to validate the morphological and molecular changes of microglia in response to Aβ42 in vivo. FIG. 9B. Activated microglia in the vicinity of amyloid plaques. Pyk2 inhibitor was infused into Iba1-EGFP transgenic mouse brain for 3 days and then Hylite-555 labelled-AP42 was infused into the brain using osmotic pump for the next 3 days. A 20 μm scale bar is in the bottom-left corner.
To test the morphological and molecular changes of microglia in response to Aβ42 in vivo a β-amyloid brain infusion assay was performed. An in vivo experimental system for […] was established with brain infusion pump inserted to left cerebral ventricle and treated Pyk2 inhibitor for 24 hours before Aβ42 infusion (FIG. 9A).

[5] = tested on: MG6 cells; test: MG6 microglia viability, morphology and proliferation (Cell Counting Kit-8); assay type: cell-based, mouse; conditions: for MG6 cell proliferation: 24 h after CSF-1, listed as Pyk2 inhibitor
Procedure: as §1, with “microglia.” for “microglia. MG6 cells were stained with anti-Tubulin and anti-Iba1, while nuclei were stained with DAPI. Cells were observed via confocal microscopy (×600). MG6 cells were treated without Pyk2 inhibitor (left) or with 1000 nM Pyk2 inhibitor (right) after 48 hours of 100 ng/mL CSF-1 treatment. Scale bar is 20 μm.”
as §2
Upon treatment with up to 1000 nM Pyk2 inhibitor, MG6 viability and morphology appeared to be unaffected (FIG. 4A). To assess if Pyk2 inhibition negatively affected proliferation of MG6 cells, treated and untreated cells were quantified using a Cell Counting Kit-8 (Dojindo, Japan CK104) after 4 hours of incubation.

[6] = 4 and 5 hours after pHrodo treatment

For `CN(c1ccccc1CNc1nc(Nc2ccc3c(c2)CC(=O)N3)ncc1C(F)(F)F)S(C)(=O)=O` [PF-431396], the “multinucleation of MG6 cells” value ([1]; 500 nM, 24 h after 48 h CSF-1) was “insufficient to induce multinucleation”, the “level of Iba1 in cytoplasm of multinucleated MG6 cells” value ([1]; 1000 nM) was “increased level” and the “multinucleation of MG6 cells / proportion of multinucleated cells” value ([1]; 1000 nM, 24 h after 48 h CSF-1, listed as Pyk2 inhibitor) was “multinucleation of MG6 cells was observed; also recorded: significantly increased”. The “proliferation of sorted mononucleated MG6 cells vs untreated” value [2] was “no difference”, the “proliferation of sorted multinucleated MG6 cells” value ([2]; listed as Pyk2 inhibitor) was “slightly increased; also recorded: increased level” and the “phagocytosis of pHrodo BioParticles, sorted mononucleated cells vs control” value ([3]; 1000 nM pretreatment) was “did not”. For the same compound, the “phagocytosis of pHrodo BioParticles, sorted multinucleated cells vs control” value ([3]; 1000 nM pretreatment) was “increase in phagocytosis”, the “phagocytic activity, Pyk2-mono vs control” value [3, 6] was “do not show significant difference” and the “phagocytic activity, Pyk2-multi vs Pyk2-mono and controls” value [3, 6] was “higher phagocytic activity”. For the same compound, the “phagocytic activity, sorted mononuclear cells (Pyk2-mono)” value ([3]; 3 hours after pHrodo treatment) was “increased fluorescence signal”, the “phagocytic activity, sorted multinuclear cells (Pyk2-multi)” value ([3]; 3 hours after pHrodo treatment, listed as Pyk2 inhibitor) was “statistically significant increase; also recorded: increased fluorescence signal” and the “expression of MHC class II molecules (e.g., H2-D1 and H2-K1) in microglia” value [4] was “increased expression”. The “phagocytic activity near amyloid plaques” value [4] was “enhanced”, the “proportion of activated microglia” value ([4]; listed as Pyk2 inhibitor) was “a significant proportion of microglia were activated; also recorded: significantly larger proportion” and the MG6 cell proliferation ([5]; 100 nM (up to 100 nM)) was “No significant change; also recorded: No difference”. For the same compound, the MG6 cell proliferation ([5]; 500 nM or 1000 nM) was “slight reduction; also recorded: slightly decreased” and the “MG6 viability and morphology” value ([5]; up to 1000 nM, 24 h after 48 h 100 ng/mL CSF-1) was “unaffected”.
